System: mold
Test: Mold growth on white bread loaves (Dough Formulation A) coated with antimicrobial powders, Example 1
Description: All of the ingredients except for the salt were added to a 20 qt Hobart mixer, and mixed with a spiral hook on the 1st speed setting (low) for two minutes. […] The salt was added, followed by mixing at the 2nd speed setting for an additional 3 minutes until full dough development. […] Next, a Gemini Straight Grain Moulder was used, according to the settings in Table 4 below, to sheet and mould the dough pieces. The shaped dough pieces were then evenly coated with 2 grams of various antimicrobial powders containing different antimicrobial agents, as described below, and then placed into 1-lb loaf pans. […] After baking, the loaves were removed from the oven and […]. The loaves were cooled on wire racks for 1 hour and then bagged in poly bags with twist ties. […] Each of the antimicrobial powders used above was prepared by adding the ingredients in the tables below to a 5 qt Hobart mixer and blending with a paddle attachment for 10 minutes.

Molecule | Mold Inhibition
C[C@@H]1C/C=C/C=C/C=C/C=C/[C@H](O[C@@H]2O[C@H](C)[C@@H](O)[C@H](N)[C@@H]2O)C[C@@H]2O[C@](O)(C[C@@H](O)C[C@H]3O[C@@H]3/C=C/C(=O)O1)C[C@H](O)[C@H]2C(=O)O [Natamycin, reference compound] | Effective
O=C([O-])c1ccccc1.[Na+] [Sodium Benzoate] | Moderately Effective
C/C=C/C=C/C(=O)[O-].[K+] [Potassium Sorbate] | Effective
CCC(=O)[O-].[Na+] [Sodium Propionate] | Moderately Effective
O=C(O)/C=C/C(=O)O [Fumaric Acid] | Slightly Effective
C/C=C/C=C/C(=O)O [Sorbic Acid] | Effective
Polylysine | Moderately Effective
CCC(=O)[O-].CCC(=O)[O-].[Ca+2] [Calcium Propionate] | Slightly Effective
CC(=O)O.CC(=O)[O-].[Na+] [Sodium Diacetate] | Moderately Effective

— patent publication US20120251662A1, “ANTIMICROBIAL POWDERS FOR THE PREPARATION OF BAKERY PRODUCTS” (Caravan Ingredients Inc., priority 2011, published 2012)
